Test results published in publication PMC4263767, “IL-28B is a Key Regulator of B- and T-Cell Vaccine Responses against Influenza” (PLoS Pathogens, 2014).
“Also recorded” adds a separate entry of the source. Like-named read-outs stand apart in the source and are kept apart here.

What was measured:
[1] = tested on: PBMCs from healthy volunteers; assay: IL-28A, IL-28B and IL-29 mRNA expression in H1N1-stimulated PBMCs; assay type: cell-based, human; conditions: MMF various concentrations 2 h before 6 h H1N1; n = 25
Description: (A) PBMCs from healthy volunteers were stimulated for six-hours with H1N1. mRNA-expression of IL-28A, IL-28B and IL-29 were normalized to non-stimulated controls and HPRT expression. Major (rs8099917 TT, n = 28) compared to minor (rs8099917 non-TT, n = 21) allele genotype. MWU-test determined statistically significant differences between groups. Bars show median values with interquartile range. (B) PBMCs from healthy volunteers (n = 25) were pre-treated with mycophenolate mofetil for 2 h prior to stimulated for six-hours with H1N1. mRNA-expression of IL-28A, IL-28B and IL-29 and statistical analysis were performed using the Kruskal Wallis (KW) test.
IL-28B primers and probe were designed based on Homo sapiens IL-28B mRNA-sequence (NM_172139.2) using Primer3 Input (version 0.4.0) (http://frodo.wi.mit.edu/). The forward primer (IL-28BF1: […]) spans the exon/exon junction of exons 1 and 2 of IL-28B. The IL-28B-specific probe (IL-28B probe: […] ) is located in the second exon and the reverse primer (IL-28BR1: […]) is in the third exon of the IL-28B gene. […]
The specificity of the three sets of qRT PCR assays was tested against Invivogen expression plasmids containing complete IL-28A (puno1-hIL-28A), IL-28B (puno1-hIL-28B) and IL-29 (punoIL-29) sequences. The specificity of all qRT PCR assays has been previously assessed. […]

transplant recipients = conditions: MMF; ref [28], [48]; cited from earlier work
[2] = tested on: PBMCs from healthy volunteers; assay type: cell-based, human; conditions: peptides 2 h prior to 5-day H1N1 stimulation, compared to peptide controls
[3] = tested on: IL28RA (IL-28 receptor alpha subunit); assay: ELISA competition assay, binding of IL-28B to IL28RA; conditions: for inhibition of IFN-λ / IL-28B binding to IL28RA (in words): peptides 10 µM, or increasing 10 nM to 100 µM; for binding affinity to IL28RA (in words): discussion
Source text: Recombinant IL28RA was coated on an ELISA plate and pre-treated with increasing concentrations of peptides. […] Anti-his secondary antibody was used to determine the relative amount of bound IFN-λ to the IL28RA. These dose-response curves allowed us to determine the effectiveness of binding inhibition of each peptide.
(C) Inhibitory activity of peptides against IL-28B to IL28RA. […] Bars indicate median values, whiskers inter-quartile ranges. The graph represents three independently repeated experiments. (D) Inhibitory activity of scrambled peptides against IL-28B to IL28RA. ELISA was used to measure the binding of a fixed concentration of IL-28B (100 ng/mL) to the IL28RA challenged by a fixed concentration of control peptides (10 µM; s, scramble). The median value representing three independently repeated experiments is shown. Whiskers indicate the interquartile range.

IL28RA = conditions: reference not given; cited from earlier work
Source text: An important strength of our study is the use of a clinical cohort including immunosuppressed transplant recipients to confirm our findings in the clinical setting. We then sought to define additional observations to support our clinical findings making our study unique. One limitation of our study is the heterogeneity of the transplant cohort due to a variety of underlying conditions leading to organ failure. […] In addition, we have shown that mycophenolate mofetil (MMF) and the IL-28B major-allele ...

[4] = tested on: T-cells, monocytes and macrophages; conditions: ref [18]–[21]; cited from earlier work
Source text: The IFN-λ family (Interleukin-28A, -28B, -29, and IFN-λ4) is a recently described class of IFNs with antiviral properties similar to IFN-α and -β [14]–[17]. IFN-λ is known to induce phosphorylation of STAT-1 and -2 via binding to its receptor, which is a heterodimer consisting of the IL-28 receptor alpha subunit (IL28RA) and IL-10 receptor beta subunit (IL10RB). […] Furthermore, IFN-λs induced the development of T-regu ... || IL-28B (IFN-λ3) belongs to the family of IFN-lambdas and shares antiviral properties similar to IFN-α via induction of interferon stimulated genes (ISGs) such as MX1 or OAS1 [41]. […] IL-12 is a key cytokine for the induction of Th1 cells and cytotoxic lymphocytes, [43]. SNPs in the IL-28B gene (minor-allele genotypes) have been associated with reduced IL-28B expression, [29]–[33], which could impact adaptive immune functions during vaccination. One limitation of our study is that we d ...

H1N1 stimulated PBMCs = assay type: cell-based, human; conditions: control peptides added twice during expansion phase
[5] = competition ELISA, IL-28B 100 ng/mL

## COc1c(C)c2c(c(O)c1C/C=C(\C)CCC(=O)OCCN1CCOCC1)C(=O)OC2 [MMF, mycophenolate mofetil]
[1]
  IFN-λ (IL-28A, IL-28B, IL-29) mRNA expression profiles: no difference in IFN-λ expression profiles; also recorded: not influenced
Transplant recipients
  effect on influenza vaccine responses: significantly suppress influenza vaccine responses

## ASVTFNLFRLLTRDLKY [peptide 6]
[2]
  H1N1-induced IgG production (in words): ability to significantly increase in vitro H1N1-induced IgG production
[3]; [5]
  inhibition of IFN-λ / IL-28B binding to IL28RA (in words): strong potential to inhibit binding of IFN-λs
[3]
  binding affinity to IL28RA (in words): high binding affinities to IL28RA

## ELASFKKARDALEESLKL [peptide 1]
[2]; listed as Peptides 1
  H1N1-induced IgG production (in words): strong trend for higher H1N1-induced IgG secretion
[2]; listed as peptides 1
  H1N1-induced IgG production (in words): ability to significantly increase in vitro H1N1-induced IgG production
[3]; competition ELISA, IL-28B 100 ng/mL, peptide 10 µM (S5C/S5D Figure), median of three independent experiments
  reduction of the binding of IL-28B to IL28RA: 71%
[3]; [5]
  inhibition of IFN-λ / IL-28B binding to IL28RA (in words): potent specific dose dependent inhibitory blocking effect
[3]; competition ELISA, IL-28B 100 ng/mL, listed as peptides 1
  inhibition of IFN-λ / IL-28B binding to IL28RA (in words): strong potential to inhibit binding of IFN-λs
[3]
  binding affinity to IL28RA (in words): high binding affinities to IL28RA

## IL-29: one of the IFN-λ family members
IL28RA
  binding affinity towards IL28RA compared to IL-28B: significantly greater binding affinity
[4]
  Th1 and Th2 cytokine producing T-cells: increase Th1 and suppress Th2 cytokine producing T-cells

## penetratin
H1N1 stimulated PBMCs
  unspecific stimulatory effect on H1N1 stimulated IgG production: No unspecific effect could be observed
